Laboratory results as given in the supplement of paper PMC10307832.

Columns and labels:
Assay in all cases: relative viability (nuclei count vs DMSO), 5 days (fraction); higher = more cells survive
[1] = compound: NCC(=O)Nc1ccc(-n2nc(C(F)(F)F)cc2-c2ccc3c(ccc4ccccc43)c2)cc1 + CCNC(=O)c1noc(-c2cc(C(C)C)c(O)cc2O)c1-c1ccc(CN2CCOCC2)cc1 [Luminespib] (partner 0.01 µM)
Method in brief: (§1)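 The day after seeding in 1536-well plates, lung cancer cell lines were treated by pin tool with a single drug, or with a fixed anchor-drug dose together with five library-drug doses (not always all listed) in √10 steps. After 5 days, a combined fix-and-stain solution (final 0.05% Triton X-100, 1% formaldehyde, 1 ug/ml Hoechst) was added. Nuclei counted on 4× images gave relative viability as treated counts over vehicle counts, reported as the median of duplicate plates.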

[2] = compound: C1CSC2=C(C(=O)N1)SC3=C2C=C(C=C3)O [kb NB 142-70] + CS(=O)(=O)N1CCN(Cc2cc3nc(-c4cccc5[nH]ncc45)nc(N4CCOCC4)c3s2)CC1 [Pictilisib] (partner 1 µM)
Method in brief: as §1

[3] = compound: C1CSC2=C(C(=O)N1)SC3=C2C=C(C=C3)O [kb NB 142-70] + N=C(N)NC(=N)NCCc1ccccc1 [Phenformin] (partner 250 µM)
Method in brief: as §1

[4] = compound: C1CSC2=C(C(=O)N1)SC3=C2C=C(C=C3)O [kb NB 142-70] + CC1(C)CCC(c2ccc(Cl)cc2)=C(CN2CCN(c3ccc(C(=O)NS(=O)(=O)c4ccc(N[C@H](CCN5CCOCC5)CSc5ccccc5)c(S(=O)(=O)C(F)(F)F)c4)cc3)CC2)C1 [Navitoclax] (partner 0.5 µM)
Method in brief: as §1

[5] = compound: NCC(=O)Nc1ccc(-n2nc(C(F)(F)F)cc2-c2ccc3c(ccc4ccccc43)c2)cc1 + Cc1nc(NC(=O)N2CCC[C@H]2C(N)=O)sc1-c1ccnc(C(C)(C)C(F)(F)F)c1 [Alpelisib] (partner 2 µM)
Method in brief: as §1

Cell Line | relative viability ([1]; first compound 0.02 µM) | relative viability ([1]; first compound 0.06325 µM) | relative viability ([1]; first compound 0.2 µM) | relative viability ([1]; first compound 0.6325 µM) | relative viability ([1]; first compound 2 µM) | relative viability ([2]; first compound 0.1 µM) | relative viability ([2]; first compound 1 µM) | relative viability ([2]; first compound 3.162 µM) | relative viability ([3]; first compound 0.1 µM) | relative viability ([3]; first compound 1 µM) | relative viability ([3]; first compound 3.162 µM) | relative viability ([4]; first compound 0.1 µM) | relative viability ([4]; first compound 1 µM) | relative viability ([4]; first compound 3.162 µM) | relative viability ([5]; first compound 0.02 µM) | relative viability ([5]; first compound 0.06325 µM) | relative viability ([5]; first compound 0.2 µM) | relative viability ([5]; first compound 0.6325 µM) | relative viability ([5]; first compound 2 µM)
201T | 1.1 | 1.07 | 1.11 | 1.03 | 1.06 | 0.683 | 0.649 | 0.698 | 0.453 | 0.418 | 0.492 | 1.22 | 1.26 | 1.17 | 1.08 | 1.05 | 1.04 | 1 | 1.05
A549 |  |  |  |  |  | 0.474 | 0.498 | 0.114 | 0.129 | 0.193 | 0.166 | 1.27 | 1.08 | 0.142 | 0.714 | 0.84 | 0.898 | 0.747 | 0.657
A-427 | 0.886 | 0.849 | 1.06 | 0.864 | 0.996 | 0.816 | 0.753 | 0.748 | 0.466 | 0.37 | 0.248 | 1.03 | 1.07 | 0.962 | 1.05 | 1.09 | 1.14 | 1.14 | 1.05
ABC-1 | 0.478 | 0.813 |  | 0.372 | 0.748 | 0.757 | 0.879 | 0.381 | 0.223 | 0.24 | 0.166 |  |  |  | 0.955 | 0.88 |  | 1.06 | 1.14
BEN | 0.254 | 0.67 | 0.211 | 0.467 | 0.311 | 0.561 | 0.527 | 0.405 | 0.25 | 0.263 | 0.239 | 0.0749 | 0.0596 | 0.0617 | 1.04 | 1.06 | 1.1 | 1.05 | 1.06
CAL-12T | 0.54 | 0.22 | 0.531 | 0.536 | 0.463 | 0.563 | 0.451 | 0.344 | 0.565 | 0.601 | 0.485 | 1.34 | 1.16 | 1.08 | 1.2 | 1.27 | 1.34 | 1.03 | 1.03
COR-L23 | 0.599 | 0.652 | 0.772 | 0.57 | 0.757 | 0.765 | 0.807 | 0.251 | 0.416 | 0.426 | 0.258 | 0.941 | 1.08 | 0.324 | 0.895 | 0.822 | 0.898 | 0.722 | 0.745
COR-L 105 | 0.915 | 0.78 | 1.01 | 0.704 | 1.15 | 0.376 | 0.392 | 0.37 | 0.428 | 0.534 | 0.486 | 0.746 | 0.828 | 0.727 | 0.911 | 1.12 | 1.26 | 0.896 | 0.969
Calu-6 |  |  |  |  |  | 0.873 | 0.805 | 0.457 |  |  |  | 0.859 | 0.891 | 0.376 | 1.05 | 1.07 | 1.15 | 0.943 | 0.913
ChaGo-K-1 | 0.614 | 0.501 | 0.54 | 0.548 | 0.567 | 0.894 | 0.807 | 0.523 | 0.513 | 0.49 | 0.453 | 1.17 | 1.11 | 0.885 |  |  |  |  | 
EBC-1 |  |  |  |  |  | 0.369 | 0.398 | 0.265 |  |  |  | 0.415 | 0.322 | 0.22 | 0.785 | 0.785 | 0.962 | 0.835 | 0.834
EKVX | 0.957 | 0.923 | 0.894 | 0.842 | 0.909 | 0.413 | 0.465 | 0.438 | 0.24 | 0.238 | 0.244 | 0.883 | 1.01 | 0.87 | 0.939 | 0.809 | 0.924 | 0.927 | 1.01
EMC-BAC-2 | 1.11 | 1.23 | 1.18 | 1.17 | 1.18 | 0.581 | 0.562 | 0.431 | 0.524 | 0.501 | 0.38 | 1.16 | 1.28 | 1.27 | 0.742 | 0.75 | 0.764 | 0.772 | 0.715
EPLC-272H | 0.265 | 0.264 | 0.367 | 0.186 | 0.35 | 0.349 | 0.325 | 0.237 | 0.38 | 0.267 | 0.189 | 1.26 | 1.13 | 0.584 | 1.06 | 0.916 | 0.917 | 1.05 | 0.936
H3255 | 0.781 | 1.03 | 0.9 | 0.777 | 0.984 | 0.469 | 0.45 | 0.437 | 0.358 | 0.362 | 0.371 | 0.498 | 0.538 | 0.55 | 0.782 | 0.651 | 0.746 | 0.811 | 0.731
HARA | 0.773 | 1.03 | 0.735 | 0.484 | 0.818 | 0.476 | 0.372 | 0.381 | 0.486 | 0.473 | 0.344 | 1.15 | 1.11 | 1.08 | 0.859 | 0.958 | 0.844 | 0.831 | 0.867
HCC-15 | 0.332 | 0.306 | 0.302 | 0.365 | 0.335 | 0.746 | 0.79 | 0.56 | 0.476 | 0.491 | 0.518 | 0.683 | 0.683 | 0.609 | 0.879 | 0.9 | 0.889 | 0.956 | 0.865
HCC-44 | 1.1 | 1.05 | 1.06 | 1.03 | 0.938 | 0.566 | 0.622 | 0.646 | 0.405 | 0.256 | 0.148 | 1 | 1.16 | 1.09 | 0.752 | 0.832 | 0.817 | 0.709 | 0.785
